Data from patent publication US11578368B2, “Methods, tools and systems for the assessment, prevention, management and treatment selection for type 2 diabetes” (Patia Biopharma, S.A. De C.V., priority 2015, dated 2023).

Assays:
[1] = cited from earlier work
[2] = cited from earlier work; remark: listed apart in the source
[3] = system: patients with and without the E508K variant of HNF1A; test: Study of acute glipizide response in humans with the HNF1A E508K variant; format: in vivo, human; settings: carriers vs non-carriers of HNF1A E508K, preliminary results, statistical analysis ongoing
Experimental: Acute and medium-term response to glipizide in patients with and without the E508K variant of HNF1A will be measured. The study will consist of two phases. Patients will be invited to participate in both, but the research subject will have the freedom to choose only one of the stages of the study.
Open Study of a Single Dose of Glipizide (5 mg) in Patients With and Without the E508K Variant of HNF1A
Main Objective: To compare the change in glucose between carriers and noncarriers after a single oral administration of 5 mg of glipizide. […]
Eligible patients will discontinue antidiabetic therapy and initiate a washout period of 7 days, during which they will be monitored for hyperglycemia requiring re-initiation of antidiabetic therapy. […]
Patients will be admitted to the clinical research center after fasting for 8 hours. […] The concentrations of glucose, insulin and other hormones (GLP1) and metabolites will be measured at 15, 30, 60, 90, 120, 180, and 240 minutes after administration of 5 mg of glipizide. In the event of developing symptoms of hypoglycemia, blood glucose will be measured immediately. […]

| Structure (SMILES) | rate of gastrointestinal adverse events ([1]; at the proposed dose) | risk of inducing severe hypoglycemia ([1]; described as low) | life ([2]; described as short) [h] | time until it starts acting ([2]; oral) [min] | hypoglycaemic response to glipizide in carriers of the E508K HNF1A variant [3] | hypoglycaemic response to glipizide in carriers of the E508K HNF1A variant ([3]; listed as glipizide) |
| --- | --- | --- | --- | --- | --- | --- |
| CN(C)C(=N)N=C(N)N [Metformin] | low rate |  |  |  |  |  |
| Cc1cnc(C(=O)NCCc2ccc(S(=O)(=O)NC(=O)NC3CCCCC3)cc2)cn1 [Glipizide] |  | 0.19-2.5 episodes per 1000 patient-years | 2 to 8 | ≤ 30 | greater response | great hypoglycaemic response |
